Laboratory results published in patent US20150252048A1, “SUBSTITUTED N-(3-PYRIMIDIN-4-YL)PHENYL)ACRYLAMIDE ANALOGS AS TYROSINE RECEPTOR KINASE BTK INHIBITORS” (UNIVERSITY OF UTAH RESEARCH FOUNDATION, priority 2012, published 2015).
pIC50: −log10 of the molar value. Like-named read-outs stand apart in the source and are kept apart here.

Assays:
BTK = BTK (Homo sapiens, UniProt Q06187); assay: Specific kinase IC50 assay; format: biochemical; conditions: 1 μM ATP, 10-dose, duplicate
Description: In addition, the compound IC50 was determined in six specific kinase assays. The kinases that the compound was assayed against were as follows: BMX/ETK, BTK, EGFR (T790M), ERBB4/HER4, JAK3, and TEC. The assays were carried out in the presence of 1 μM ATP and were conducted in a 10-dose format in duplicate with three-fold serial dilutions starting at 10 μM. The calculated IC50s are shown in Table IX, and representative dose response curves from these assays are shown in FIG. 5 (Panels A: BMX/ETK kinase assay; Panel B: BTK kinase assay; Panel C: EGFR (T790M) kinase assay; Panel D: ERBB4/HER4 kinase assay; Panel E: JAK3 kinase assay; and Panel F: TEC kinase assay). The data in Figure show the individual assay duplicate assay results a line fit to the data; 100% activity is the activity in the […] of test compound. […].

Pharmacokinetics in rat = format: in vivo, male Sprague Dawley rats
Description: The pharmacokinetic behavior of a representative disclosed compound, compound 3 (N-(3-(6-((3-morpholinophenyl)amino)-1H-pyrazolo[3,4-d]pyrimidin-4-yl)phenyl)acrylamide), which corresponds to compound 3 in Table I, was also evaluated in rat. A study was conducted using three male Sprague Dawley rats in each group as shown below:
The solution formulations were prepared as follows: (A) intravenous route (“i.v.”): a weighed quantity of 3 (10.45 mg) was transferred into a 10 mL clean glass vial. To this 0.231 mL of ethanol (4.5%) was added, vortexed and sonicated. To this 1.028 mL of propylene glycol (20%) was added, vortexed and sonicated. 1.543 mL of PEG400 (30%) was added, vortexed and sonicated. Finally 2.340 mL of water (45.5%) was added gradually, vortexed and sonicated to make a solution of 2 mg/mL concentration. The final solution was filtered using syringe filter (0.22 μm).; and (B) a weighed quantity of SC-1344 (27.43 mg) was transferred into a 10 mL clean glass vial. To this 0.304 mL of ethanol (4.5%) was added, vortexed and sonicated. To this 1.350 mL of propylene glycol (20%) was added, vortexed and sonicated. 2.024 mL of PEG400 (30%) was added, vortexed and sonicated. Finally 3.070 mL of water (45.5%) was added gradually, vortexed and sonicated to make a solution of 4 mg/mL concentration. The final solution was filtered using syringe filter (0.22 μm).
Bioanalysis was performed using fit-for-purpose LC-MS/MS method for the quantification of 3 in rat plasma samples. The calibration curve (CC) for the method consisted of nine non-zero calibration standards along with a double blank and zero standard samples. Study samples were analyzed along with two sets of quality control samples (6 QC samples; low, medium and high QC samples in triplicate). Briefly, the LC-MS/MS method used the following parameters: a) gradient mobile phase (Pump A: 0.1% Formic acid in water; Pump B: 100% methanol); b) XBridge C8, 50×4.6 mm, 3.5μ (Waters) column; c) 10 μL injection volume; d) 1.00 mL/min flow rate; e) 3.50 min run time; f) 10° C. sample cooler temperature; and g) 40° C. column oven temperature. The sample calibration curve was 1.02-1023 ng/mL, with an internal standard (telmisartan) at 0.2 μg/mL. Briefly, biological samples were prepared as follows: 50 μL of sample was mixed with 150 μL of internal standard, then mixture was vortexed for 5 min at 800 rpm, followed by centrifugation at 4000 rpm for 5 min; 150 μL of the sample supernatant was transferred into a separate tube and diluted with 75 μL of methanol: water (1:1), followed by injection into LC/MS/MS.
Plasma pharmacokinetic parameters were calculated using the non-compartmental analysis tool of Phoenix software (Version 6.3) and were determined from individual animals in each group. The area under the plasma concentration-time curve (AUC0-t and AUCinf), elimination half-life (T1/2), clearance (CL), volume of distribution (Vss) and Mean residence time (MRT) were calculated from intravenous group. The peak plasma concentration (Cmax), time to achieve peak plasma concentration (Tmax), AUC0-t and AUCinf, and absolute oral bioavailability (F) were calculated from the oral group.
The mean plasma concentration-time profiles are shown in FIGS. 10 and 11, i.e. the mean concentration values of the individual values obtained from each rat in the study group at the indicated time points.

Microsomal stability = format: in vitro ADME, rat; conditions: for Compound Remaining: rat microsomes 0.5 mg protein/mL, 1 μM
Description: Data were also obtained for the stability of Compound 3 when incubated with a microsomal preparation. Drug metabolism can occur, at least in part, in cellular microsomes, and thus the assay assesses the stability of drug to metabolic modification. The concentration of compound 3 was 1 μM in the assay system and the indicated microsomes were present at 0.5 mg total protein per milliliter. The concentration of intact drug was determined at the indicated timepoints using a LC-MS/MS assay. The enzyme activity of the microsomes used in this study were assessed using a positive control, testosterone.

BTK, sequence (Q06187 whole entry): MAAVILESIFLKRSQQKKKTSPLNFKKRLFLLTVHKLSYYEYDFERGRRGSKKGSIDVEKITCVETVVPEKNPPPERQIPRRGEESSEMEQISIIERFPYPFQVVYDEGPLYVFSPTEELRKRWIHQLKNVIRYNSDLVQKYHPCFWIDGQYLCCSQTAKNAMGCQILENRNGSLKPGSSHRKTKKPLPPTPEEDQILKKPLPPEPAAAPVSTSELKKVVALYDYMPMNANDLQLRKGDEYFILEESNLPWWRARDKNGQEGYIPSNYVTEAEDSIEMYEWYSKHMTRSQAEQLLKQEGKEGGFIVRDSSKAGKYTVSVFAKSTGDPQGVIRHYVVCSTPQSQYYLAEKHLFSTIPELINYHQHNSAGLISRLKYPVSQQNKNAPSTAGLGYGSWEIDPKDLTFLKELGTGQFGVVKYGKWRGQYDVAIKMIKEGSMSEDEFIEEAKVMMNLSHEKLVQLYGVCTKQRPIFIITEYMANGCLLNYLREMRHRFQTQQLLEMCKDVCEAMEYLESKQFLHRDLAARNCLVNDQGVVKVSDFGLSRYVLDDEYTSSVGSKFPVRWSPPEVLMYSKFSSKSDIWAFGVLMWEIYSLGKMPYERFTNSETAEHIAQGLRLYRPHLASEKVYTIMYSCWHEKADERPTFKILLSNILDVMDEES

What does the source list for `C=CC(=O)Nc1cccc(-c2nc(Nc3cccc(N4CCOCC4)c3)nc3[nH]ncc23)c1` [Compound 3, N-(3-(6-((3-morpholinophenyl)amino)-1H-pyrazolo[3,4-d]pyrimidin-4-yl)phenyl)acrylamide]?
pIC50 (BTK): 7.91; AUC(0-t) (Pharmacokinetics in rat; IV 5 mg/kg, solution, 5 mg/kg): 1063 ng·h/mL; CL (Pharmacokinetics in rat; IV 5 mg/kg, solution, 5 mg/kg): 79.7 mL/min/kg; T1/2 (Pharmacokinetics in rat; IV 5 mg/kg, solution, 5 mg/kg): 2.71 h; Vss (Pharmacokinetics in rat; IV 5 mg/kg, solution, 5 mg/kg): 7.91 L/kg; F (absolute oral bioavailability) (Pharmacokinetics in rat; PO 20 mg/kg vs IV 5 mg/kg, AUC0-t and nominal doses used): 2.44%; Cmax (Pharmacokinetics in rat; PO 20 mg/kg, solution, 20 mg/kg): 23.1 ng/mL; AUC(0-inf) (Pharmacokinetics in rat; male, Sprague Dawley, plasma, IV 5 mg/kg, solution): 1070 ng·h/mL; Cmax (Pharmacokinetics in rat; male, Sprague Dawley, plasma, IV 5 mg/kg, solution, read-out: Cmax (back-extrapolated concentration)): 1840 ng/mL; AUC(0-inf) (Pharmacokinetics in rat; male, Sprague Dawley, plasma, PO 20 mg/kg, solution, one animal data): 254 ng·h/mL; Tmax (Pharmacokinetics in rat; male, Sprague Dawley, plasma, PO 20 mg/kg, solution, read-out: Tmax (median)): 2 h; AUC(0-t) (Pharmacokinetics in rat; male, Sprague-Dawley, plasma, PO 20 mg/kg, solution, read-out: AUC0-t): 104 ng·h/mL; half-life at 1 μM (Microsomal stability; rat microsomes): 0.233 h; Compound Remaining (Microsomal stability; 0 min): 100 % of initial amount; Compound Remaining (Microsomal stability; 10 min): 55.2 % of initial amount; Compound Remaining (Microsomal stability; 20 min): 33.6 % of initial amount; Compound Remaining (Microsomal stability; 30 min): 20.5 % of initial amount; Compound Remaining (Microsomal stability; 60 min): 5.13 % of initial amount; microsomal CLint at 1 μM (Microsomal stability; rat microsomes, read-out: CLinit (intrinsic clearance)): 100 µL/min/mg
